{
  "source": "patent US8680150B2",
  "about": "“Small molecule hematopoietic growth factor mimetic compounds that activate hematopoietic growth factor receptors” (Ligand Pharmaceuticals, Inc., priority 2009, dated 2014)",
  "tested_on": "UT7/EPO Cell line",
  "assay": "Cell proliferation assay in UT7/EPO cell line (ViaLight Plus)",
  "type": "cell-based, human",
  "details": "compound at 10 uM, efficacy relative to EPO (100%), UT7/EPO cells expressing endogenous EPO receptor, starved of EPO overnight, 72 hours at 37° C.",
  "experimental": "The primary testing for the exemplified compounds was performed in UT7/EPO Cell line. UT7/EPO is human leukemia cell line, obtained from Dr. Norio Komatsu (Blood, Vol 82 (2), pp 456-464, 1993). These cells express endogenous EPO receptor and are dependant upon EPO for growth and proliferation. Briefly, the cells were starved of EPO overnight and plated in 96 or 384 well plates. The compounds were added to the cells at 10 uM concentration. The plates were then incubated at 37° C. for 72 hours. The proliferative effect of the compounds was measured by a commercially available kit from Lonza (ViaLight Plus).",
  "data": [
    {"compound": "C=Cc1cccc(/C=N/NC(=O)c2ccc(N(C)C)cc2)c1", "note": "[Compound 167, 4-Dimethylaminobenz(3-vinylbenzylidene)hydrazide]", "values": [
      {"measurement": "Activity (%)", "value": 11, "unit": "%"}
    ]},
    {"compound": "COc1cccc(/C=N/NC(=O)c2ccc(N(C)C)cc2)c1", "note": "[Compound 168, 4-Dimethylaminobenz(3-methoxybenzylidene)hydrazide]", "values": [
      {"measurement": "Activity (%)", "setting": "10 µM", "value": 11, "unit": "%"}
    ]},
    {"compound": "CCCCCCCCCCCCCCCCCC(=O)N/N=C/c1cc(OC)ccc1O", "note": "[Compound 148, Octadecano(2-hydroxy-5-methoxybenzylidene)hydrazide]", "values": [
      {"measurement": "Activity (%)", "value": 7.1, "unit": "%"}
    ]},
    {"compound": "O=C(N/N=C/c1cccc(/C=N/OCc2ccccc2)c1)c1ccc(-n2ccnc2)cc1", "note": "[Compound 194, 4-(1-Imidazolyl)benz(3-benzyloxyiminomethylbenzylidene)hydrazide]", "values": [
      {"measurement": "Activity (%)", "value": 5.2, "unit": "%"}
    ]},
    {"compound": "COc1cccc(/C=N/NC(=O)c2ccc(OCc3cccc(Cl)c3)cc2)c1", "note": "[Compound 153, 4-(3-Chlorobenzyloxy)benz(3-methoxybenzylidene)hydrazide]", "values": [
      {"measurement": "Activity (%)", "value": 5.3, "unit": "%"}
    ]},
    {"compound": "Cc1ccccc1COCc1cccc(/C=N/NC(=O)c2ccc(N(C)C)cc2)c1", "note": "[Compound 188, 4-Dimethylaminobenz(3-(2-methylbenzyloxy)methylbenzylidene)hydrazide]", "values": [
      {"measurement": "Activity (%)", "value": 5.5, "unit": "%"}
    ]},
    {"compound": "COc1cc(/C=N/NC(=O)c2ccc(-c3ccccc3)cc2)ccc1F", "note": "[Compound 159, 4-Phenylbenz(4-fluoro-3-methoxybenzylidene)hydrazide]", "values": [
      {"measurement": "Activity (%)", "value": 8.9, "unit": "%"}
    ]},
    {"compound": "COc1cc(/C=N/NC(=O)c2ccc(OCc3ccc(Cl)cc3)cc2)ccc1O", "note": "[Compound 141, 4-(4-Chlorobenzyloxy)benz(4-hydroxy-3-methoxybenzylidene)hydrazide]", "values": [
      {"measurement": "Activity (%)", "value": 17, "unit": "%"}
    ]},
    {"compound": "COc1cc(/C=N/NC(=O)c2ccc(-c3ccccc3)cc2)ccc1O", "note": "[Compound 144, 4-Phenylbenz(4-hydroxy-3-methoxybenzylidene)hydrazide]", "values": [
      {"measurement": "Activity (%)", "value": 15, "unit": "%"}
    ]},
    {"compound": "CCNC(=O)/C=C/c1cccc(/C=N/NC(=O)c2ccc(N(C)C)cc2)c1", "note": "[Compound 179, 4-Dimethylaminobenz(2E-ethylaminocarboxyethenylbenzylidene)hydrazide]", "values": [
      {"measurement": "Activity (%)", "value": 4.3, "unit": "%"}
    ]},
    {"compound": "COc1ccc(/C=N/NC(=O)c2ccc(OCc3ccc(C)cc3)cc2)cc1OC", "note": "[Compound 138, 4-(4-Methylbenzyloxy)benz(3,4-dimethoxybenzylidene)hydrazide]", "values": [
      {"measurement": "Activity (%)", "value": 18, "unit": "%"}
    ]},
    {"compound": "CC(=O)c1cccc(/C=N/NC(=O)c2ccc(-c3ccccc3)cc2)c1", "note": "[Compound 165, 4-Phenylbenz(3-acetylbenzylidene)hydrazide]", "values": [
      {"measurement": "Activity (%)", "value": 14, "unit": "%"}
    ]},
    {"compound": "O=C(/C=C/c1ccc(-c2ccccc2)cc1)N/N=C/c1ccc(OCCO)cc1", "note": "[Compound 198, 2E-(4-Phenylphenyl)acryl(4-(2-hydroxyethoxy)benzylidene)hydrazide]", "values": [
      {"measurement": "Activity (%)", "value": 4.6, "unit": "%"}
    ]},
    {"compound": "COc1cccc(/C=N/NC(=O)c2ccc(N(C)C)cc2)c1", "note": "[Compound 139, 4-Dimethylaminobenz(3-methoxybenzylidene)hydrazide]", "values": [
      {"measurement": "Activity (%)", "setting": "10 µM", "value": 7.8, "unit": "%"}
    ]},
    {"compound": "COc1ccc(O)c(/C=N/NC(=O)c2cc3cc(OC)ccc3[nH]2)c1", "note": "[Compound 172, 5-Methoxyindole-2-carboxyl(2-hydroxy-5-methoxybenzylidene)hydrazide]", "values": [
      {"measurement": "Activity (%)", "value": 9.8, "unit": "%"}
    ]},
    {"compound": "CN(C)c1ccc(C(=O)N/N=C/c2cccc(/C=C/c3ccccc3Cl)c2)cc1", "note": "[Compound 185, 4-Dimethylaminobenz(2E-(2-chlorophenyl)ethenylbenzylidene)hydrazide]", "values": [
      {"measurement": "Activity (%)", "value": 16, "unit": "%"}
    ]},
    {"compound": "Cc1ccc(COCc2cccc(/C=N/NC(=O)c3ccc(N(C)C)cc3)c2)cc1", "note": "[Compound 189, 4-Dimethylaminobenz(3-(4-methylbenzyloxy)methylbenzylidene)hydrazide]", "values": [
      {"measurement": "Activity (%)", "value": 9.1, "unit": "%"}
    ]},
    {"compound": "COc1cccc(/C=N/NC(=O)c2ccc(OCc3ccc4ccccc4c3)cc2)c1", "note": "[Compound 157, 4-(2-Naphthylmethoxy)benz(3-methoxybenzylidene)hydrazide]", "values": [
      {"measurement": "Activity (%)", "value": 9.9, "unit": "%"}
    ]},
    {"compound": "COc1cccc(/C=N/NC(=O)c2ccc(NCCO)cc2)c1", "note": "[Compound 199, 4-(2-Hydroxyethylamino)benz(3-methoxybenzylidene)hydrazide]", "values": [
      {"measurement": "Activity (%)", "value": 3.0, "unit": "%"}
    ]},
    {"compound": "COc1cccc(/C=N/NC(=O)c2ccc(OCc3ccc(Br)cc3)cc2)c1", "note": "[Compound 142, 4-(4-Bromobenzyloxy)benz(3-methoxybenzylidene)hydrazide]", "values": [
      {"measurement": "Activity (%)", "value": 6.0, "unit": "%"}
    ]},
    {"compound": "COc1ccc(O)c(/C=N/NC(=O)c2cc3cc(O)ccc3[nH]2)c1", "note": "[Compound 175, 5-Hydroxyindole-2-carboxyl(2-hydroxy-5-methoxybenzylidene)hydrazide]", "values": [
      {"measurement": "Activity (%)", "value": 4.3, "unit": "%"}
    ]},
    {"compound": "COc1ccc(O)c(/C=N/NC(=O)c2cc3cc(O)ccc3o2)c1", "note": "[Compound 174, 5-Hydroxybenzofuran-2-carboxyl(2-hydroxy-5-methoxybenzylidene)hydrazide]", "values": [
      {"measurement": "Activity (%)", "value": 19, "unit": "%"}
    ]},
    {"compound": "Cc1ccccc1/C=C/c1cccc(/C=N/NC(=O)c2ccc(N(C)C)cc2)c1", "note": "[Compound 181, 4-Dimethylaminobenz(2E-(2-methylphenyl)ethenylbenzylidene)hydrazide]", "values": [
      {"measurement": "Activity (%)", "value": 4.2, "unit": "%"}
    ]},
    {"compound": "COc1cccc(/C=N/NC(=O)c2ccc(OCc3ccc(C)cc3)cc2)c1", "note": "[Compound 134, 4-(4-Methylbenzyloxy)benz(3-methoxybenzylidene)hydrazide]", "values": [
      {"measurement": "Activity (%)", "value": 14, "unit": "%"}
    ]},
    {"compound": "COc1cc(/C=N/NC(=O)c2ccc(OCc3ccc(C)cc3)cc2)cc(OC)c1OC", "note": "[Compound 136, 4-(4-Methylbenzyloxy)benz(3,4,5-trimethoxybenzylidene)hydrazide]", "values": [
      {"measurement": "Activity (%)", "value": 4.8, "unit": "%"}
    ]},
    {"compound": "CN(C)c1ccc(C(=O)N/N=C/c2cccc(/C=C/c3cccc(Cl)c3)c2)cc1", "note": "[Compound 182, 4-Dimethylaminobenz(2E-(3-chlorophenyl)ethenylbenzylidene)hydrazide]", "values": [
      {"measurement": "Activity (%)", "value": 11, "unit": "%"}
    ]},
    {"compound": "CN(C)c1ccc(C(=O)N/N=C/c2cccc(/C=N/OCc3ccccc3)c2)cc1", "note": "[Compound 190, 4-Dimethylaminobenz(3-benzyloxyiminomethylbenzylidene)hydrazide]", "values": [
      {"measurement": "Activity (%)", "value": 20, "unit": "%"}
    ]},
    {"compound": "CN(C)c1ccc(C(=O)N/N=C/c2cccc(COCc3ccccc3)c2)cc1", "note": "[Compound 184, 4-Dimethylaminobenz(3-benzyloxymethylbenzylidene)hydrazide]", "values": [
      {"measurement": "Activity (%)", "value": 21, "unit": "%"}
    ]},
    {"compound": "COc1cccc(/C=N/NC(=O)c2ccc(-c3cnco3)cc2)c1", "note": "[Compound 150, 4-(4-Oxazolyl)benz(3-methoxybenzylidene)hydrazide]", "values": [
      {"measurement": "Activity (%)", "value": 4.5, "unit": "%"}
    ]},
    {"compound": "COc1ccc(/C=N/NC(=O)c2ccc(OCc3ccc(Cl)cc3)cc2)cc1OC", "note": "[Compound 137, 4-(4-Chlorobenzyloxy)benz(3,4-dimethoxybenzylidene)hydrazide]", "values": [
      {"measurement": "Activity (%)", "value": 12, "unit": "%"}
    ]},
    {"compound": "COCc1cccc(/C=N/NC(=O)c2ccc(N(C)C)cc2)c1", "note": "[Compound 187, 4-Dimethylaminobenz(3-methoxymethylbenzylidene)hydrazide]", "values": [
      {"measurement": "Activity (%)", "value": 17, "unit": "%"}
    ]},
    {"compound": "COc1ccc(COc2ccc(C(=O)N/N=C/c3cccc(OC)c3)cc2)cc1", "note": "[Compound 152, 4-(4-Methoxybenzyloxy)benz(3-methoxybenzylidene)hydrazide]", "values": [
      {"measurement": "Activity (%)", "value": 6.9, "unit": "%"}
    ]},
    {"compound": "COc1cccc(/C=N/NC(=O)c2ccc(-n3cccc3)cc2)c1", "note": "[Compound 135, 4-(1-Pyrrolyl)benz(3-methoxybenzylidene)hydrazide]", "values": [
      {"measurement": "Activity (%)", "value": 12, "unit": "%"}
    ]},
    {"compound": "COc1ccc(O)c(/C=N/NC(=O)c2ccc(N3CCCC3=O)cc2)c1", "note": "[Compound 129, 4-(2-Oxopyrrolidino-1-)benz(2-hydroxy-5-methoxybenzylidene)hydrazide]", "values": [
      {"measurement": "Activity (%)", "value": 23, "unit": "%"}
    ]},
    {"compound": "CN(C)c1ccc(C(=O)N/N=C/c2cccc(CO)c2)cc1", "note": "[Compound 171, 4-Dimethylaminobenz(3-hydroxymethylbenzylidene)hydrazide]", "values": [
      {"measurement": "Activity (%)", "value": 16, "unit": "%"}
    ]},
    {"compound": "COc1cccc(/C=N/NC(=O)c2ccc(OCc3ccc(C(F)(F)F)cc3)cc2)c1", "note": "[Compound 154, 4-(4-Trifluoromethylbenzyloxy)benz(3-methoxybenzylidene)hydrazide]", "values": [
      {"measurement": "Activity (%)", "value": 6.7, "unit": "%"}
    ]},
    {"compound": "CN(C)c1ccc(C(=O)N/N=C/c2cccc(N(C)C)c2)cc1", "note": "[Compound 177, 4-Dimethylaminobenz(3-dimethylaminobenzylidene)hydrazide]", "values": [
      {"measurement": "Activity (%)", "value": 9.1, "unit": "%"}
    ]},
    {"compound": "CN(C)c1ccc(C(=O)N/N=C/c2cccc(OCCO)c2)cc1", "note": "[Compound 195, 4-Dimethylaminobenz(3-(2-hydroxyethoxy)benzylidene)hydrazide]", "values": [
      {"measurement": "Activity (%)", "value": 7.3, "unit": "%"}
    ]},
    {"compound": "COCc1cccc(/C=N/NC(=O)c2cc3cc(O)ccc3o2)c1", "note": "[Compound 176, 5-Hydroxybenzofuran-2-carboxyl(3-methoxymethylbenzylidene)hydrazide]", "values": [
      {"measurement": "Activity (%)", "value": 19, "unit": "%"}
    ]},
    {"compound": "COc1ccc(O)c(/C=N/NC(=O)c2ccc(-c3ccccc3)cc2)c1", "note": "[Compound 151, 4-Phenylbenz(2-hydroxy-5-methoxybenzylidene)hydrazide]", "values": [
      {"measurement": "Activity (%)", "value": 6.3, "unit": "%"}
    ]},
    {"compound": "CN(C)c1ccc(/C=N/NC(=O)c2ccc(N3CCCC3=O)cc2)cc1", "note": "[Compound 127, 4-(2-Oxopyrrolidino-1-)benz(4-dimethylaminobenzylidene)hydrazide]", "values": [
      {"measurement": "Activity (%)", "value": 6.8, "unit": "%"}
    ]},
    {"compound": "CC1=NN(c2ccc3ccccc3n2)C(=O)/C1=N\\Nc1ccc(O)cc1", "note": "[Compound 108, 4-(4-Hydroxyphenyl)hydrazono-1-(2-quinolino)-3-methyl-5-pyrazolone]", "values": [
      {"measurement": "Activity (%)", "value": 2.4, "unit": "%"}
    ]},
    {"compound": "COc1cccc(/C=N/NC(=O)c2ccc(OCc3cccc(OC)c3)cc2)c1", "note": "[Compound 155, 4-(3-Methoxybenzyloxy)benz(3-methoxybenzylidene)hydrazide]", "values": [
      {"measurement": "Activity (%)", "value": 11, "unit": "%"}
    ]},
    {"compound": "COc1ccc(/C=N/NC(=O)c2ccc(N3CCCC3=O)cc2)cc1OC", "note": "[Compound 132, 4-(2-Oxopyrrolidino-1-)benz(3,4-dimethoxybenzylidene)hydrazide]", "values": [
      {"measurement": "Activity (%)", "value": 8.7, "unit": "%"}
    ]},
    {"compound": "CN(C)c1ccc(C(=O)N/N=C/c2cccc(/C=C/c3ccc(Cl)cc3)c2)cc1", "note": "[Compound 186, 4-Dimethylaminobenz(2E-(4-chlorophenyl)ethenylbenzylidene)hydrazide]", "values": [
      {"measurement": "Activity (%)", "value": 9.6, "unit": "%"}
    ]}
  ]
}
